Laboratory results reported in ChEMBL document CHEMBL4376821, “Recent Developments in Therapeutic Peptides for the Glucagon-like Peptide 1 and 2 Receptors” (J Med Chem, 2020).
Each block holds one compound with its values, some of them ahead of it. Non-standard residues stand in square brackets, D forms with d. Residues, ends and D or L forms follow the SMILES beside them. *: point of attachment. Palmitoyl = CCCCCCCCCCCCCCCC(=O)*; Nle = CCCC[C@H](N)C(=O)O

What was measured:
[1] = Terminal half life in cynomolgus monkey at 0.25 mg/kg, sc; type: ADME, organism-based, Macaca fascicularis; details: in vivo, read-out: beta t1/2
[2] = Clearance in Sprague-Dawley rat at 0.2 mg/kg, iv; type: ADME, organism-based; details: in vivo
[3] = Half-life in Yucatan mini-pig at 0.15 mg, sc; type: ADME, Sus scrofa domesticus; details: in vivo
[4] = Half life in human at 15 mg, sc qd measured on day 8 by liquid chromatography/tandem mass spectrometry method; type: ADME, organism-based; details: in vivo
[5] = molecular target: Glucagon-like peptide 1 receptor (Homo sapiens, UniProt P43220); assay: Agonist activity at human GLP-1 receptor expressed in CHO-K1 cells assessed as cAMP induction by FRET assay; type: functional, cell-based
[6] = molecular target: T1, Glucagon-like peptide 2 receptor (Homo sapiens, UniProt O95838); assay: Agonist activity at human GLP-2 receptor expressed in CHO-K1 cells assessed as cAMP induction by FRET assay; type: functional, cell-based
T1 sequence (O95838 whole entry): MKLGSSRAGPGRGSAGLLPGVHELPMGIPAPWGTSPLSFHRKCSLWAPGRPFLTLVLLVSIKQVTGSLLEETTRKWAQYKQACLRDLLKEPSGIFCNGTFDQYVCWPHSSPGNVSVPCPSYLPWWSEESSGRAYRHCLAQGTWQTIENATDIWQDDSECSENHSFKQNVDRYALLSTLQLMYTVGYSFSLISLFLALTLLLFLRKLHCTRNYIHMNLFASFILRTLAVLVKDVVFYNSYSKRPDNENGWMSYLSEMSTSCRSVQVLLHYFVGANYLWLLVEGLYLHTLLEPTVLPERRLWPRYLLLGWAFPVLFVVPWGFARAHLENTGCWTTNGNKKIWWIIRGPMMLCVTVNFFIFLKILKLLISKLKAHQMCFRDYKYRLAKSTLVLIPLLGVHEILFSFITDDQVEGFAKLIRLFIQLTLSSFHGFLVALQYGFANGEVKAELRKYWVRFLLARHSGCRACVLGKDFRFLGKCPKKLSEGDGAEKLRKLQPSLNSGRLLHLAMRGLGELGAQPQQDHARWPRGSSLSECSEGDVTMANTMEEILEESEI

[7] = Half life in C57BL/6J mouse at 800 nmol/kg, sc measured up to 24 hrs by LC-MS/MS analysis; type: ADME, organism-based; details: in vivo
[8] = Half life in human plasma; type: ADME, cell-free
[9] = Half life in human plasma at 0.5 mg for 4 weeks followed by 0.5 mg for 4 weeks and subsequently 1 mg for weeks administered subcutaneously once weekly and measured up to 840 hrs post last dose by LC-MS/MS analysis; type: ADME; details: sc
Homo sapiens = species on record: Homo sapiens; assay: Induction of plasma citrulline level in human; type: functional
[10] = Half life in human; type: ADME

Glucagon-like peptide 1 receptor, sequence (P43220 whole entry): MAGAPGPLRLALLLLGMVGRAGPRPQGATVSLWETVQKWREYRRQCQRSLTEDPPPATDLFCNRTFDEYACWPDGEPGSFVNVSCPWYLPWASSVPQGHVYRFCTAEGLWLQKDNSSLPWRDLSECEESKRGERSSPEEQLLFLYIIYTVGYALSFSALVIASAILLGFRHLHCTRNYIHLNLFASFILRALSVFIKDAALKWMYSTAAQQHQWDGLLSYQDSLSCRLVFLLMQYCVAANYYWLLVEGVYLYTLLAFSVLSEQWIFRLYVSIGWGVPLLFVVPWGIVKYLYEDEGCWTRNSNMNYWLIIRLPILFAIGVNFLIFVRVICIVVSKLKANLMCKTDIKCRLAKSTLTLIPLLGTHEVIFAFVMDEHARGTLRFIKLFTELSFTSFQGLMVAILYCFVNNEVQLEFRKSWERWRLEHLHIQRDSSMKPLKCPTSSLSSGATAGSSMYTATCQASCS

half-life [1]: > 1800 min
clearance [2]: < 0.3 mL/min/kg
half-life [3]: > 1800 min
Compound: CCCC[C@H](NC(=O)[C@H](CCC(=O)O)NC(=O)[C@H](CC(=O)O)NC(=O)[C@H](CO)NC(=O)[C@H](Cc1ccccc1)NC(=O)[C@H](CO)NC(=O)CNC(=O)[C@H](CC(=O)O)NC(=O)CNC(=O)[C@@H](N)Cc1cnc[nH]1)C(=O)N[C@H](Cc1ccccc1)C(=O)N[C@H](C(=O)N[C@H](C(=O)N[C@@H](CC(C)C)C(=O)N[C@@H](CC(=O)O)C(=O)N[C@@H](CC(C)C)C(=O)N[C@@H](CC(C)C)C(=O)N[C@@H](C)C(=O)N[C@@H](C)C(=O)N[C@@H](CCCNC(=N)N)C(=O)N[C@@H](CC(=O)O)C(=O)N[C@@H](Cc1ccccc1)C(=O)N[C@H](C(=O)N[C@@H](CC(N)=O)C(=O)N[C@@H](Cc1c[nH]c2ccccc12)C(=O)N[C@@H](CC(C)C)C(=O)N[C@H](C(=O)N[C@@H](CCC(N)=O)C(=O)N[C@H](C(=O)N[C@@H](CCCCN)C(=O)N[C@H](C(=O)N[C@H](C(=O)N[C@@H](CC(=O)O)C(N)=O)[C@@H](C)O)[C@@H](C)CC)[C@@H](C)O)[C@@H](C)CC)[C@@H](C)CC)[C@@H](C)CC)[C@@H](C)O [FE 203799] (H-HGDGSFSDE[Nle][dF]TILDLLAARDFINWLIQTKITD-NH2)

EC50 [5]: 0.17 nM
EC50 [6]: 1 nM
half-life [7]: 162 min
Compound: CCCCCCCCCCCCCCCC(=O)NCCCC[C@H](NC(=O)[C@H](Cc1ccc(O)cc1)NC(=O)[C@@H](NC(=O)[C@H](CO)NC(=O)[C@H](CC(C)C)NC(=O)[C@H](CCC(=O)O)NC(=O)[C@H](CO)NC(=O)[C@@H](NC(=O)[C@H](Cc1ccccc1)NC(=O)[C@H](CO)NC(=O)CNC(=O)[C@H](CC(=O)O)NC(=O)CNC(=O)[C@@H](N)Cc1cnc[nH]1)[C@@H](C)O)[C@@H](C)O)C(=O)N[C@@H](CC(=O)O)C(=O)N[C@@H](C)C(=O)N[C@@H](CC(C)C)C(=O)N[C@@H](C)C(=O)N[C@@H](C)C(=O)N[C@@H](CCCNC(=N)N)C(=O)N[C@@H](CC(=O)O)C(=O)N[C@@H](Cc1ccccc1)C(=O)N[C@H](C(=O)N[C@@H](C)C(=O)N[C@@H](Cc1c[nH]c2ccccc12)C(=O)N[C@@H](CC(C)C)C(=O)N[C@H](C(=O)N[C@@H](CCC(N)=O)C(=O)N[C@H](C(=O)N[C@@H](CCCCN)C(=O)N[C@H](C(=O)N[C@H](C(=O)N[C@@H](CC(=O)O)C(N)=O)[C@@H](C)O)[C@@H](C)CC)[C@@H](C)O)[C@@H](C)CC)[C@@H](C)CC (H-HGDGSFTSELSTYK(Palmitoyl)DALAARDFIAWLIQTKITD-NH2)

The remaining lines, values behind:

Compound: CC[C@H](C)[C@H](NC(=O)[C@H](Cc1ccccc1)NC(=O)[C@H](CC(=O)O)NC(=O)[C@H](CCCNC(=N)N)NC(=O)[C@H](C)NC(=O)[C@H](C)NC(=O)[C@H](CC(C)C)NC(=O)[C@H](CC(N)=O)NC(=O)[C@H](CC(=O)O)NC(=O)[C@H](CC(C)C)NC(=O)[C@@H](NC(=O)[C@@H](NC(=O)[C@H](CC(N)=O)NC(=O)[C@H](CCSC)NC(=O)[C@H](CCC(=O)O)NC(=O)[C@H](CC(=O)O)NC(=O)[C@H](CO)NC(=O)[C@H](Cc1ccccc1)NC(=O)[C@H](CO)NC(=O)CNC(=O)[C@H](CC(=O)O)NC(=O)CNC(=O)[C@@H](N)Cc1c[nH]cn1)[C@@H](C)O)[C@@H](C)CC)C(=O)N[C@@H](CC(N)=O)C(=O)N[C@@H](Cc1c[nH]c2ccccc12)C(=O)N[C@@H](CC(C)C)C(=O)N[C@H](C(=O)N[C@@H](CCC(N)=O)C(=O)N[C@H](C(=O)N[C@@H](CCCCN)C(=O)N[C@H](C(=O)N[C@H](C(=O)N[C@@H](CC(=O)O)C(=O)O)[C@@H](C)O)[C@@H](C)CC)[C@@H](C)O)[C@@H](C)CC [TEDUGLUTIDE]
half-life [4]: 120 min

Compound: H-HGDGSFTSELSTYLDALAARDFIAWLIQTKITD-NH2
EC50 [5]: 0.07 nM
EC50 [6]: 0.09 nM
half-life [7]: 54 min

Compound: CC[C@H](C)[C@H](NC(=O)[C@H](Cc1ccccc1)NC(=O)[C@H](CCC(=O)O)NC(=O)[C@H](CCCCN)NC(=O)[C@H](C)NC(=O)[C@H](C)NC(=O)[C@H](CCC(N)=O)NC(=O)CNC(=O)[C@H](CCC(=O)O)NC(=O)[C@H](CC(C)C)NC(=O)[C@H](Cc1ccc(O)cc1)NC(=O)[C@H](CO)NC(=O)[C@H](CO)NC(=O)[C@@H](NC(=O)[C@H](CC(=O)O)NC(=O)[C@H](CO)NC(=O)[C@@H](NC(=O)[C@H](Cc1ccccc1)NC(=O)[C@@H](NC(=O)CNC(=O)[C@H](CCC(=O)O)NC(=O)[C@H](C)NC(=O)[C@@H](N)Cc1cnc[nH]1)[C@@H](C)O)[C@@H](C)O)C(C)C)C(=O)N[C@@H](C)C(=O)N[C@@H](Cc1c[nH]c2ccccc12)C(=O)N[C@@H](CC(C)C)C(=O)N[C@H](C(=O)N[C@@H](CCCCN)C(=O)NCC(=O)N[C@@H](CCCNC(=N)N)C(=O)O)C(C)C
half-life [8]: < 2 min

Compound: SEMAGLUTIDE
t1/2 [9]: 165 h

Compound: H-HGEGTFSSELATILDALAARDFIAWLIATKITDKKKKKK-NH2
Activity (Homo sapiens): <=86%
half-life [10]: 3000 min
